Converted amounts (≈) assume the structure as drawn. “And” between values parts separate entries of the source, which are not always exact repeats. Identical values can stand only once. Blank lines part the entries; values can stand above or below the compound they belong to.
Legend:
Test in all cases: ≥ marks a high value that may be exact or a test limit, other limits are often not marked, values filed in µg/mL are converted to µM
[1] = system: Escherichia coli 55B5
[2] = system: Escherichia coli UB1005
[3] = system: Pseudomonas aeruginosa
[4] = system: Salmonella typhimurium
[5] = system: Pseudomonas aeruginosa PAK
[6] = system: Staphylococcus aureus
[7] = system: Streptococcus gordonii Challis DL1
[8] = system: Streptococcus mitis ATCC 903
[9] = system: Streptococcus mutans UA159
[10] = system: Streptococcus sanguinis NY101
[11] = system: Escherichia coli DH5alpha
[12] = system: Pseudomonas aeruginosa NBRC 13275
[13] = system: Staphylococcus aureus NBRC 13276
[14] = system: Escherichia coli D31
[15] = system: Listeria fleischmannii DSM 24998
[16] = system: Listeria grayi DSM 20601
[17] = system: Listeria monocytogenes DSM 20600
[18] = system: Micrococcus luteus DSM 20030
[19] = system: Bacillus subtilis C971
[20] = system: Corynebacterium xerosis C875
[21] = system: Enterococcus faecalis C625
[22] = system: Escherichia coli DC2
[23] = system: Pseudomonas aeruginosa H187
[24] = system: Pseudomonas aeruginosa H188
[25] = system: Salmonella typhimurium C587
[26] = system: Salmonella typhimurium C610
[27] = system: Staphylococcus aureus ATCC 25923
[28] = system: Staphylococcus aureus SAP 0017
[29] = system: Staphylococcus epidermidis C621
[30] = system: Candida albicans 820
[31] = system: Escherichia coli ML-35p
[32] = system: Listeria monocytogenes EGD
[33] = system: Staphylococcus aureus ATCC 33591
[34] = system: Bacillus subtilis KCCM 11495
[35] = system: Escherichia coli KCCM 11569

MIC [1]: 25 µM (≈ 61.6 µg/mL) | MIC [2]: 20.5 µM (≈ 50.5 µg/mL) | MIC [3]: 20.5 µM (≈ 50.5 µg/mL) | MIC [4]: 15.5 µM (≈ 38.2 µg/mL)
Structure (SMILES): CC[C@H](C)[C@H](NC(=O)[C@H](C)N)C(=O)N[C@@H](Cc1cnc[nH]1)C(=O)N[C@@H](CCCCN)C(=O)N[C@@H](CC(C)C)C(=O)N[C@@H](C)C(=O)N[C@@H](Cc1cnc[nH]1)C(=O)N[C@@H](CCCCN)C(=O)N[C@@H](CC(C)C)C(=O)N[C@@H](CC(C)C)C(=O)N1CCC[C@H]1C(=O)N[C@@H](CCCCN)C(=O)N[C@H](C(=O)N[C@@H](CC(C)C)C(=O)N[C@@H](CCCN=C(N)N)C(=O)N[C@@H](C)C(=O)N[C@H](C(=O)N[C@@H](CCCCN)C(=O)N[C@@H](CCCCN)C(=O)N[C@@H](CC(C)C)C(=O)N[C@@H](C)C(=O)N[C@@H](CC(N)=O)C(=O)O)C(C)C)[C@@H](C)O [AIHKLAHKLLPKTLRAVKKLAN]

MIC [1]: 14.5 µM (≈ 36 µg/mL) | MIC [2]: 15.5 µM (≈ 38.5 µg/mL) | MIC [3]: 12.5 µM (≈ 31 µg/mL) | MIC [4]: 10.5 µM (≈ 26.1 µg/mL)
Structure (SMILES): CC[C@H](C)[C@H](NC(=O)[C@H](C)N)C(=O)N[C@@H](Cc1cnc[nH]1)C(=O)N[C@@H](CCCCN)C(=O)N[C@@H](CC(C)C)C(=O)N[C@@H](C)C(=O)N[C@@H](Cc1cnc[nH]1)C(=O)N[C@@H](CCCCN)C(=O)N[C@H](C(=O)N[C@@H](CC(C)C)C(=O)N[C@@H](CCCCN)C(=O)N[C@@H](CCCCN)C(=O)N[C@H](C(=O)N[C@@H](CC(C)C)C(=O)N[C@@H](CCCN=C(N)N)C(=O)N[C@@H](C)C(=O)N[C@H](C(=O)N[C@@H](CCCCN)C(=O)N[C@@H](CCCCN)C(=O)N[C@@H](CC(C)C)C(=O)N[C@@H](C)C(=O)N[C@@H](CC(N)=O)C(=O)O)C(C)C)[C@@H](C)O)[C@@H](C)O [AIHKLAHKTLKKTLRAVKKLAN]

MIC [5]: ≥ 43.5 µM | MIC [6]: 21.7 µM (≈ 62.5 µg/mL) | MIC [7]: 11.1 µM (≈ 32 µg/mL) | MIC [8]: 5.57 µM (≈ 16 µg/mL) | MIC [9]: 2.78 µM (≈ 8 µg/mL) | MIC [10]: 11.1 µM (≈ 32 µg/mL)
Structure (SMILES): CC[C@H](C)[C@H](NC(=O)CNC(=O)CNC(=O)CNC(=O)[C@H](Cc1ccccc1)NC(=O)[C@H](CCCN=C(N)N)NC(=O)[C@H](Cc1cnc[nH]1)NC(=O)[C@@H](NC(=O)[C@H](Cc1ccccc1)NC(=O)[C@H](Cc1cnc[nH]1)NC(=O)[C@H](CCCCN)NC(=O)[C@@H](NC(=O)[C@@H](N)Cc1ccccc1)[C@@H](C)CC)[C@@H](C)CC)C(=O)N[C@@H](CCCCN)C(=O)N[C@@H](CCC(N)=O)C(=O)N[C@@H](CC(C)C)C(=O)N[C@@H](CC(C)C)C(=O)N[C@@H](Cc1cnc[nH]1)C(=O)N[C@@H](Cc1ccccc1)C(=O)N[C@@H](Cc1ccccc1)C(=O)N[C@@H](CCC(N)=O)C(=O)N[C@@H](CCCN=C(N)N)C(=O)N[C@@H](Cc1ccccc1)C(N)=O [FIKHFIHRFGGGIKQLLHFFQRF]

MIC [11]: ≥ 50 µM | MIC [12]: 25 µM (≈ 62.7 µg/mL) | MIC [13]: ≥ 200 µM
Structure (SMILES): CC[C@H](C)[C@H](NC(=O)CNC(C)=O)C(=O)NCC(=O)N[C@@H](CCCCN)C(=O)N[C@@H](Cc1ccccc1)C(=O)N[C@@H](CC(C)C)C(=O)N[C@@H](Cc1cnc[nH]1)C(=O)N[C@@H](CO)C(=O)N[C@@H](C)C(=O)N[C@@H](CCCCN)C(=O)N[C@@H](CCCCN)C(=O)N[C@@H](Cc1ccccc1)C(=O)NCC(=O)N[C@@H](CCCCN)C(=O)N[C@@H](C)C(=O)N[C@@H](Cc1ccccc1)C(=O)N[C@H](C(=O)NCC(=O)N[C@@H](CCC(=O)O)C(=O)N[C@H](C(=O)N[C@@H](CCSC)C(=O)N[C@@H](CC(N)=O)C(=O)N[C@@H](CO)C(N)=O)[C@@H](C)CC)C(C)C [GIGKFLHSAKKFGKAFVGEIMNS]

Structure (SMILES): CC[C@H](C)[C@H](N)C(=O)N[C@@H](Cc1ccccc1)C(=O)N[C@@H](CCCCN)C(=O)N[C@@H](C)C(=O)N[C@H](C(=O)N[C@@H](Cc1c[nH]c2ccccc12)C(=O)N[C@@H](CO)C(=O)NCC(=O)N[C@H](C(=O)N[C@@H](CCCCN)C(=O)N[C@@H](CO)C(=O)N[C@@H](CC(C)C)C(=O)N[C@@H](Cc1ccccc1)C(=O)O)[C@@H](C)CC)[C@@H](C)CC [IFKAIWSGIKSLF]
MIC [14]: 15 µM (≈ 22.6 µg/mL) | MIC [15]: 2 µM (≈ 3.02 µg/mL) | MIC [16]: 2 µM (≈ 3.02 µg/mL) | MIC [17]: 2 µM (≈ 3.02 µg/mL) | MIC [18]: 2 µM (≈ 3.02 µg/mL)

MIC [19]: 0.853 µM (≈ 2.54 µg/mL) | MIC [20]: 0.443 µM (≈ 1.32 µg/mL) | MIC [21]: 6.89 µM (≈ 20.5 µg/mL) | MIC [22]: 1.36 µM (≈ 4.06 µg/mL) | MIC [2]: 2.18 µM (≈ 6.49 µg/mL) | MIC [23]: 3.44 µM (≈ 10.2 µg/mL) | MIC [24]: 6.89 µM (≈ 20.5 µg/mL) | MIC [25]: 10.9 µM (≈ 32.4 µg/mL) | MIC [26]: 1.71 µM (≈ 5.07 µg/mL) | MIC [27]: 5.46 µM (≈ 16.2 µg/mL) | MIC [28]: 4.33 µM (≈ 12.9 µg/mL) | MIC [29]: 2.73 µM (≈ 8.11 µg/mL)
Structure (SMILES): CC[C@H](C)[C@H](NC(=O)[C@H](C)NC(=O)[C@H](CCCCN)NC(=O)[C@H](CC(C)C)NC(=O)[C@H](C)NC(=O)[C@@H](NC(=O)[C@H](Cc1cnc[nH]1)NC(=O)[C@H](CC(C)C)NC(=O)[C@@H](NC(=O)[C@@H](NC(=O)[C@H](CCCCN)NC(=O)[C@@H](NC(=O)[C@H](C)NC(=O)[C@@H](NC(=O)[C@H](CCCCN)NC(=O)[C@H](Cc1ccccc1)NC(=O)[C@@H](NC(=O)[C@H](CCCCN)NC(=O)[C@H](CC(C)C)NC(=O)[C@H](Cc1ccccc1)NC(=O)[C@H](CO)NC(=O)[C@H](CCCCN)NC(=O)[C@H](Cc1c[nH]c2ccccc12)NC(=O)[C@H](CCCCN)NC(C)=O)[C@@H](C)O)C(C)C)C(C)C)[C@@H](C)O)C(C)C)[C@@H](C)O)C(=O)N[C@@H](CO)C(=O)N[C@@H](CO)C(N)=O [KWKSFLKTFKVAVKTVLHTALKAISS]

MIC [30]: 2.6 µM and 3.8 µM | MIC [31]: 2 µM and 3.1 µM | MIC [32]: 1.2 µM and 1.9 µM | MIC [33]: 4.5 µM and 7.8 µM
Structure (SMILES): CC[C@H](C)[C@@H]1NC(=O)[C@H](CC(N)=O)NC(=O)[C@@H]2CSSC[C@@H]3NC(=O)[C@H](CCCN=C(N)N)NC(=O)[C@@H](NC(=O)[C@@H](NC(=O)[C@@H](N)CCCN=C(N)N)[C@@H](C)O)CSSC[C@@H](C(=O)N[C@@H](CCCN=C(N)N)C(=O)O)NC(=O)[C@H](CSSC[C@H](NC(=O)[C@H](CCCN=C(N)N)NC(=O)CNC(=O)[C@H](CC(C)C)NC(=O)[C@H](CCCN=C(N)N)NC3=O)C(=O)N[C@@H](CO)C(=O)N[C@@H](CCCN=C(N)N)C(=O)N[C@@H](CCCN=C(N)N)C(=O)N[C@@H](CCC(=O)O)C(=O)N[C@@H](CO)C(=O)N[C@@H](Cc3ccc(O)cc3)C(=O)N[C@@H](CO)C(=O)NCC(=O)N[C@@H](CO)C(=O)N2)NC(=O)[C@H](CC(C)C)NC(=O)[C@H](CO)NC(=O)[C@H](Cc2ccc(O)cc2)NC(=O)[C@H]([C@@H](C)CC)NC(=O)[C@H](CCCN=C(N)N)NC(=O)CNC(=O)[C@H](CC(N)=O)NC1=O [RTCRCRLGRCSRRESYSGSCNINGRIYSLCCR]

MIC [34]: ≥ 43.8 µM | MIC [35]: ≥ 43.8 µM
Structure (SMILES): CC(C)C[C@H](NC(=O)CNC(=O)[C@H](Cc1cnc[nH]1)NC(=O)[C@H](Cc1cnc[nH]1)NC(=O)[C@H](CC(C)C)NC(=O)[C@H](CC(C)C)NC(=O)[C@H](C)NC(=O)[C@H](CC(N)=O)NC(=O)[C@H](CC(C)C)NC(=O)[C@@H](N)Cc1c[nH]c2ccccc12)C(=O)N[C@@H](CC(N)=O)C(=O)N[C@@H](CS)C(=O)N[C@@H](C)C(N)=O [WLNALLHHGLNCA]
